How the values were obtained:
Assay type in all cases: in vivo
corn (Zea mays) = experiment: Test C preemergence, corn; conditions: 0 is no effect, 100 is complete control
In short: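 Steps: sow in loam soil blended with sand; treat soil preemergence by directed spray, or treat young plants (2–10 cm, one to two leaves) postemergence; hold in greenhouse 10 or 12 days; rate injury visually relative to untreated controls on a 0–100 scale.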

[1] = tested on: foxtail, giant (giant foxtail, Setaria faberi); experiment: Test C preemergence, giant foxtail; conditions: 0 is no effect, 100 is complete control
In short: (§1)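 Plants grown in a sand and loam soil blend received the formulated test chemicals either as a preemergence soil-directed spray or postemergence at 2 to 10 cm height. After 10 or 12 greenhouse days, injury was assessed visually, with 100 meaning complete control.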

[2] = tested on: oat, wild (wild oat, Avena fatua); experiment: Test C preemergence, wild oat; conditions: 0 is no effect, 100 is complete control
In short: as §1

soybean (Glycine max) = experiment: Test C preemergence, soybean; conditions: 0 is no effect, 100 is complete control
In short: as §1

[3] = tested on: blackgrass (Alopecurus myosuroides); experiment: Test C postemergence, blackgrass; conditions: visual injury, 0 to 100 scale (0 no effect, 100 complete control)
In short: as §1

kochia (Bassia scoparia) = experiment: Test C postemergence, kochia; conditions: for Kochia plant response rating: visual injury, 0 to 100 scale (0 no effect, 100 complete control); for Plant response rating (0 to 100 scale), Kochia: 0 is no effect, 100 is complete control
In short: as §1

[4] = tested on: pigweed, palmer (palmer amaranth, Amaranthus palmeri); experiment: Test C postemergence, palmer amaranth; conditions: for Pigweed, Palmer plant response rating: visual injury, 0 to 100 scale (0 no effect, 100 complete control); for Plant response rating (0 to 100 scale), Pigweed, Palmer: 0 is no effect, 100 is complete control
In short: as §1

[5] = tested on: ducksalad (Heteranthera limosa); experiment: Test D flooded paddy test, ducksalad; design: key: 0 = no effect, 100 = complete control; conditions: 250 g ai/ha, Flood; applied to paddy water at 2-leaf stage; visual rating after 13 days; scale 0 (no effect) to 100 (complete control)
In short: (§2)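 Test compounds applied directly to paddy water after pots were flooded to 3 cm above soil, with plants at 2-leaf stage; depth held throughout. Greenhouse for 13 days, then visual rating versus controls on 0–100 scale (0 no effect, 100 complete control); dash means no result.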

rice (Oryza sativa) = experiment: Test D flooded paddy test, rice; design: key: 0 = no effect, 100 = complete control; conditions: 250 g ai/ha, Flood; applied to paddy water at 2-leaf stage; visual rating after 13 days; scale 0 (no effect) to 100 (complete control)
In short: as §2

Compound | Plant response rating (0 to 100 scale), Corn (corn (Zea mays); 31 g ai/ha Preemergence) | Plant response rating (0 to 100 scale), Corn (corn (Zea mays); 125 g ai/ha Preemergence) | Plant response rating (0 to 100 scale), Foxtail, Giant ([1]; 31 g ai/ha Preemergence) | Plant response rating (0 to 100 scale), Foxtail, Giant ([1]; 125 g ai/ha Preemergence) | Plant response rating (0 to 100 scale), Oat, Wild ([2]; 31 g ai/ha Preemergence) | Plant response rating (0 to 100 scale), Oat, Wild ([2]; 125 g ai/ha Preemergence) | Plant response rating (0 to 100 scale), Soybean (soybean (Glycine max); 31 g ai/ha Preemergence) | Plant response rating (0 to 100 scale), Soybean (soybean (Glycine max); 125 g ai/ha Preemergence) | Blackgrass plant response rating ([3]; 31 g ai/ha Postemergence) | Kochia plant response rating (kochia (Bassia scoparia); 31 g ai/ha Postemergence) | Plant response rating (0 to 100 scale), Kochia (kochia (Bassia scoparia); 125 g ai/ha Postemergence) | Pigweed, Palmer plant response rating ([4]; 31 g ai/ha Postemergence) | Pigweed, Palmer plant response rating ([4]; 125 g ai/ha Postemergence) | Plant response rating, Ducksalad [5] | Plant response rating, Rice (rice (Oryza sativa)) | Plant response rating (0 to 100 scale), Pigweed, Palmer ([4]; 125 g ai/ha Postemergence) | Blackgrass plant response rating ([3]; 125 g ai/ha Postemergence) | Kochia plant response rating (kochia (Bassia scoparia); 125 g ai/ha Postemergence)
Cc1c(NS(=O)(=O)C(F)(F)F)cc(N2CCCC(OC3CCC3)C2=O)c(C)c1F (stereo not drawn) [Compound 36] | 30 | 90 | 50 | 100 | 30 | 90 | 90 | 90 | 20 | 40 | 80 | 30 | 70 | 65 | 0 | – | – | –
CCOC(=O)N(c1cc(N2CCC(OC3CC3)C2=O)c(C)cc1C)S(=O)(=O)C(F)(F)F (stereo not drawn) [Compound 19] | 0 | 0 | 0 | 10 | 0 | 40 | 30 | 90 | 0 | 30 | 70 | 0 | – | 0 | 0 | 10 | – | –
Cc1cc(C)c(N2CCC(OCC3CC3(F)F)C2=O)cc1NS(=O)(=O)C(F)(F)F (stereo not drawn) [Compound 41] | 90 | 100 | 100 | 100 | 60 | 100 | 60 | 100 | 40 | 70 | – | 50 | 90 | 60 | 10 | – | 60 | 80
CC#CCOC1CCN(c2cc(NS(=O)(=O)C(F)(F)F)c(C)cc2C)C1=O (stereo not drawn) [Compound 60] | 30 | 100 | 100 | 100 | 90 | 100 | 50 | 90 | 50 | 100 | – | 60 | 90 | 90 | 35 | – | 90 | 90
Cc1c(N2CCC(OC3CCC3)C2=O)cc(N(C(=O)OCC(C)C)S(=O)(=O)C(F)(F)F)c(C)c1C (stereo not drawn) [Compound 48] | 20 | 60 | 30 | 100 | 50 | 80 | 30 | 70 | 10 | 20 | – | 30 | 70 | 95 | 25 | – | 30 | 60
CCO/N=C1\CCN(c2cc(NS(=O)(=O)C(F)(F)F)c(C)cc2C)C1=O [Compound 12, N-[5-[3-(ethoxyimino)-2-oxo-1-pyrrolidinyl]-2,4-dimethylphenyl]-1,1,1-trifluoromethanesulfonamide] | 70 | 100 | 100 | 100 | 90 | 100 | 90 | 100 | 80 | 90 | 90 | 80 | – | 100 | 40 | 100 | – | –
CCCC(=O)OCN(c1cc(N2CCC(OC3CC3)C2=O)c(C)cc1C)S(=O)(=O)C(F)(F)F (stereo not drawn) [Compound 20] | 60 | 90 | 90 | 100 | 60 | 100 | 70 | 90 | 90 | 70 | 80 | 50 | – | 90 | 15 | 80 | – | –
